The record followed here is the supplement of paper PMC11962398.

Compound in assay [1]: T1, C[C@H]1CNCCN1c1nccc(-c2noc3c2CCC[C@@]32CCCc3sc(N)c(C#N)c32)n1 [BI-2493]
The conditions noted are these: 5 days. Here is the method:
(§1)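 PRISM pooled barcoded cancer cell line viability screen (Broad Institute) with BI-2493 at 8 doses in threefold dilutions from 0.00457 to 10 µmol/L, 5-day treatment; curves fitted per cell line. IC50 is undefined (placeholder) for resistant lines. AUC is capped at 1, and sensitivity is reported as 1 − AUC.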

Compound in assay [2]: T1, BI-2493
Description: 1 - AUC of viability dose-response curve (sensitivity) (fraction); higher = more sensitive. The conditions noted are these: 5 days. Here is the method:
as §1

Regarding YD15_SALIVARY_GLAND, in the assay with BI-2493 [1], the “IC50 of cell viability” value turned out to be 6.99 µM. In the assay with BI-2493 [2], the “1 - AUC of viability dose-response curve” value is 0.0555.
As to YD38_UPPER_AERODIGESTIVE_TRACT, the “IC50 of cell viability” value with BI-2493 [1] worked out at 6.6 µM. Also, the “1 - AUC of viability dose-response curve” value with BI-2493 [2] was determined as 0.088.
The like results for YH13_CENTRAL_NERVOUS_SYSTEM were, in that order, over 10 µM and 0.0914.
The like results for YKG1_CENTRAL_NERVOUS_SYSTEM were, in that order, 9.17 µM and 0.0786.
For the test system YSCCC_BILIARY_TRACT, in the assay with BI-2493 [1], the “IC50 of cell viability” value is 5.65 µM. Further, the “1 - AUC of viability dose-response curve” value with BI-2493 [2] is 0.104.
Consider ZR751_BREAST, for which the “IC50 of cell viability” value in the assay with BI-2493 [1] is 4.57 µM. For the same test system, the “1 - AUC of viability dose-response curve” value with BI-2493 [2] came to 0.1.
